Reference: PubChem BioAssay (NCI)
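Method: 48-hour compound exposure of cells in 96-well plates, five concentrations, linear interpolation of endpoints. The concentration for full growth arrest is given as TGI.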

Tests used:
Assay in all cases: NCI anticancer screen, dose series, 48 h
[1] = tested on: CCRF-CEM leukemia
[2] = tested on: A498 renal
[3] = tested on: ACHN renal
[4] = tested on: IGROV1 ovarian
[5] = tested on: HOP-62 NSCLC
[6] = tested on: 786-0 renal
[7] = tested on: SK-MEL-28 melanoma
[8] = tested on: RXF 393 renal
[9] = tested on: OVCAR-3 ovarian
[10] = tested on: HCT-15 colon
[11] = tested on: SR leukemia
[12] = tested on: LOX IMVI melanoma
[13] = tested on: A549 NSCLC
[14] = tested on: M14 melanoma
[15] = tested on: MOLT-4 leukemia
[16] = tested on: MALME-3M melanoma
[17] = tested on: SW-620 colon
[18] = tested on: SF-295 CNS
[19] = tested on: BT-549 breast
[20] = tested on: NCI-H226 lung
[21] = tested on: NCI-H23 lung
[22] = tested on: EKVX NSCLC
[23] = tested on: U251 CNS
[24] = tested on: MDA-N
[25] = tested on: SF-539 CNS
[26] = tested on: HS 578T breast
[27] = tested on: SNB-19 CNS
[28] = tested on: MCF7 breast
[29] = tested on: K-562 leukemia
[30] = tested on: TK-10 renal
[31] = tested on: NCI-H460 lung
[32] = tested on: OVCAR-8 ovarian
[33] = tested on: SK-MEL-2 melanoma
[34] = tested on: HCT-116 colon
[35] = tested on: PC-3 prostate
[36] = tested on: HOP-92 NSCLC
[37] = tested on: SF-268 CNS
[38] = tested on: OVCAR-4 ovarian
[39] = tested on: OVCAR-5 ovarian
[40] = tested on: HT29 colon
[41] = tested on: SNB-75 CNS
[42] = tested on: UO-31 renal
[43] = tested on: UACC-257 melanoma
[44] = tested on: SN12C renal
[45] = tested on: SK-OV-3 ovarian
[46] = tested on: KM12 colon
[47] = tested on: CAKI-1 renal
[48] = tested on: DU-145 prostate
[49] = tested on: SK-MEL-5 melanoma
[50] = tested on: NCI-H522 lung
[51] = tested on: HL-60(TB) leukemia
[52] = tested on: COLO 205 colon
[53] = tested on: NCI/ADR-RES ovarian
[54] = tested on: MDA-MB-435
[55] = tested on: UACC-62 melanoma
[56] = tested on: T-47D breast
[57] = tested on: RPMI-8226 leukemia
[58] = tested on: MDA-MB-231 breast
[59] = tested on: HCC-2998 colon
[60] = tested on: DLD-1 colon
[61] = tested on: HOP-18 NSCLC
[62] = tested on: DMS 114 small cell lung
[63] = tested on: DMS 273 small cell lung
[64] = tested on: SNB-78 CNS
[65] = tested on: M19-MEL melanoma

Compound: CN(CCC(=O)O)C1=Nc2ccc(Cl)cc2C(c2ccccc2)=[N+]([O-])C1
- TGI [1]: > 100 µM
- TGI [2]: > 100 µM
- TGI [3]: > 100 µM
- TGI [4]: > 100 µM
- TGI [5]: > 100 µM
- TGI [6]: > 100 µM
- TGI [7]: > 100 µM
- TGI [8]: > 100 µM
- TGI [9]: > 100 µM
- TGI [10]: > 100 µM
- TGI [11]: > 100 µM
- TGI [12]: > 100 µM
- TGI [13]: > 100 µM
- TGI [14]: > 100 µM
- TGI [15]: > 100 µM
- TGI [16]: > 100 µM
- TGI [17]: > 100 µM
- TGI [18]: > 100 µM
- TGI [19]: > 100 µM
- TGI [20]: > 100 µM
- TGI [21]: > 100 µM
- TGI [22]: > 100 µM
- TGI [23]: > 100 µM
- TGI [24]: > 100 µM
- TGI [25]: > 100 µM
- TGI [26]: > 100 µM
- TGI [27]: > 100 µM
- TGI [28]: > 100 µM
- TGI [29]: > 100 µM
- TGI [30]: > 100 µM
- TGI [31]: > 100 µM
- TGI [32]: > 100 µM
- TGI [33]: > 100 µM
- TGI [34]: > 100 µM
- TGI [35]: > 100 µM
- TGI [36]: > 100 µM
- TGI [37]: > 100 µM
- TGI [38]: > 100 µM
- TGI [39]: > 100 µM
- TGI [40]: > 100 µM
- TGI [41]: > 100 µM
- TGI [42]: > 100 µM
- TGI [43]: > 100 µM
- TGI [44]: > 100 µM
- TGI [45]: > 100 µM
- TGI [46]: > 100 µM
- TGI [47]: > 100 µM
- TGI [48]: > 100 µM
- TGI [49]: > 100 µM
- TGI [50]: > 100 µM
- TGI [51]: > 100 µM
- TGI [52]: > 100 µM
- TGI [53]: > 100 µM
- TGI [54]: > 100 µM
- TGI [55]: > 100 µM
- TGI [56]: > 100 µM
- TGI [57]: > 100 µM
- TGI [58]: > 100 µM

Compound: Clc1ccccc1-c1nc2ccc(C34CC5CC(CC(C5)C3)C4)cc2[nH]1
- TGI [1]: > 100 µM
- TGI [2]: 70 µM
- TGI [3]: 28.8 µM
- TGI [4]: 50.4 µM
- TGI [5]: 34.9 µM
- TGI [6]: 25.9 µM
- TGI [7]: > 100 µM
- TGI [8]: 20.8 µM
- TGI [10]: > 100 µM
- TGI [11]: 40.5 µM
- TGI [59]: > 100 µM
- TGI [12]: 29.8 µM
- TGI [13]: 23.4 µM
- TGI [14]: 70.7 µM
- TGI [15]: > 100 µM
- TGI [16]: 98.5 µM
- TGI [17]: > 100 µM
- TGI [18]: 32 µM
- TGI [19]: 43.5 µM
- TGI [20]: > 100 µM
- TGI [21]: 36.4 µM
- TGI [22]: > 100 µM
- TGI [23]: 20.5 µM
- TGI [24]: > 100 µM
- TGI [26]: 89.9 µM
- TGI [27]: 21.6 µM
- TGI [28]: 23.4 µM
- TGI [29]: > 100 µM
- TGI [30]: 64.6 µM
- TGI [31]: > 100 µM
- TGI [32]: 22.8 µM
- TGI [33]: 40.8 µM
- TGI [34]: > 100 µM
- TGI [35]: 34 µM
- TGI [36]: 27.1 µM
- TGI [37]: > 100 µM
- TGI [38]: > 100 µM
- TGI [39]: 54 µM
- TGI [40]: 37.9 µM
- TGI [41]: 21.6 µM
- TGI [42]: 28.1 µM
- TGI [43]: > 100 µM
- TGI [44]: 88.5 µM
- TGI [45]: 42.9 µM
- TGI [46]: > 100 µM
- TGI [47]: > 100 µM
- TGI [48]: > 100 µM
- TGI [49]: > 100 µM
- TGI [50]: 43.1 µM
- TGI [51]: > 100 µM
- TGI [52]: > 100 µM
- TGI [53]: > 100 µM
- TGI [54]: > 100 µM
- TGI [55]: 27.1 µM
- TGI [56]: 27.8 µM
- TGI [57]: > 100 µM
- TGI [58]: 37.9 µM

Compound: CN(C)CCNC(=O)c1cccc2ccc(-c3ccncc3)nc12
- TGI [60]: 31 µM
- TGI [1]: 15.5 µM
- TGI [2]: 4.34 µM
- TGI [61]: 9.18 µM
- TGI [62]: 8.95 µM
- TGI [4]: 8.37 µM
- TGI [5]: 5.56 µM
- TGI [6]: 34.2 µM
- TGI [7]: 17.5 µM
- TGI [8]: 7.85 µM
- TGI [9]: 14.4 µM
- TGI [10]: 11.9 µM
- TGI [59]: 10.2 µM
- TGI [14]: 16.1 µM
- TGI [15]: 1.37 µM
- TGI [17]: 18.1 µM
- TGI [18]: 14.8 µM
- TGI [21]: 5.31 µM
- TGI [22]: 13.4 µM
- TGI [23]: 8.75 µM
- TGI [25]: 9.64 µM
- TGI [27]: 9.5 µM
- TGI [29]: 9.56 µM
- TGI [30]: 5.57 µM
- TGI [32]: > 100 µM
- TGI [33]: 13.3 µM
- TGI [34]: 4.71 µM
- TGI [36]: 7.31 µM
- TGI [37]: 21.7 µM
- TGI [38]: 15 µM
- TGI [39]: 5.63 µM
- TGI [40]: 13.8 µM
- TGI [41]: 9.9 µM
- TGI [63]: 7.76 µM
- TGI [42]: 5.37 µM
- TGI [43]: 6.66 µM
- TGI [44]: 15.4 µM
- TGI [45]: 6.95 µM
- TGI [46]: 54.3 µM
- TGI [47]: 5.21 µM
- TGI [64]: > 100 µM
- TGI [49]: 3.54 µM
- TGI [51]: 7.59 µM
- TGI [52]: 7.26 µM
- TGI [65]: 4.86 µM
- TGI [55]: 3.73 µM

Compound: CC(C)NC(NC(C)C)=C(S(=O)(=O)C(F)(F)C(F)(F)C(F)(F)C(F)(F)F)S(=O)(=O)C(F)(F)C(F)(F)C(F)(F)C(F)(F)F
- TGI [1]: > 100 µM
- TGI [2]: > 100 µM
- TGI [3]: > 100 µM
- TGI [4]: > 100 µM
- TGI [5]: > 100 µM
- TGI [6]: > 100 µM
- TGI [7]: > 100 µM
- TGI [9]: > 100 µM
- TGI [10]: > 100 µM
- TGI [11]: > 100 µM
- TGI [59]: > 100 µM
- TGI [12]: > 100 µM
- TGI [13]: > 100 µM
- TGI [14]: > 100 µM
- TGI [15]: > 100 µM
- TGI [16]: > 100 µM
- TGI [17]: > 100 µM
- TGI [18]: > 100 µM
- TGI [19]: > 100 µM
- TGI [20]: > 100 µM
- TGI [21]: > 100 µM
- TGI [22]: > 100 µM
- TGI [23]: > 100 µM
- TGI [24]: > 100 µM
- TGI [25]: > 100 µM
- TGI [26]: > 100 µM
- TGI [27]: > 100 µM
- TGI [28]: > 100 µM
- TGI [29]: > 100 µM
- TGI [30]: > 100 µM
- TGI [31]: > 100 µM
- TGI [32]: > 100 µM
- TGI [33]: > 100 µM
- TGI [34]: > 100 µM
- TGI [35]: > 100 µM
- TGI [36]: > 100 µM
- TGI [37]: > 100 µM
- TGI [38]: > 100 µM
- TGI [39]: > 100 µM
- TGI [40]: > 100 µM
- TGI [41]: > 100 µM
- TGI [42]: > 100 µM
- TGI [43]: > 100 µM
- TGI [44]: > 100 µM
- TGI [45]: > 100 µM
- TGI [46]: > 100 µM
- TGI [47]: > 100 µM
- TGI [48]: > 100 µM
- TGI [49]: > 100 µM
- TGI [50]: > 100 µM
- TGI [51]: > 100 µM
- TGI [52]: > 100 µM
- TGI [53]: > 100 µM
- TGI [54]: > 100 µM
- TGI [55]: > 100 µM
- TGI [56]: > 100 µM
- TGI [57]: > 100 µM
- TGI [58]: > 100 µM
